Data set [1] is described as follows: Lipophilicity determination by RP-HPLC (capacity factor, log k). The data set is classed as physicochemical. As to conditions: RP-HPLC capacity factor logarithm; C18 column, MeOH 60% / H2O 40%, 40 °C. Here is the method:
Lipophilicity of the studied compounds was determined by RP-HPLC as capacity factor logarithm (log k) and calculated as log P using ACD/Percepta software. […] It is important to note that lipophilicity also has a great impact on target and off-target interactions, as mentioned below.
A HPLC system Agilent 1200 equipped with DAD detector (Agilent, Santa Clara, CA, USA) was used. A chromatographic column Symmetry® C18 5 μm, 4.6 × 250 mm, Part No. WAT054275, (Waters Corp., Milford, MA, USA) was used. The HPLC separation process was monitored and evaluated by EZChrom Elite software ver. 3.3.2 (Agilent). Isocratic elution by a mixture of MeOH p.a. (60%) and H2O-HPLC Mili-Q grade (40%) as a mobile phase was used. The total flow of the column was 1.0 mL/min, injection 20 μL, column temperature 40 °C and sample temperature 10 °C. The detection wavelength 210 nm was chosen. The KI methanolic solution was used for the dead time (tD) determination. Retention times (tR) were measured in minutes. The capacity factors k were calculated according to formula k = (tR − tD)/tD, where tR is the retention time of the solute, whereas tD denotes the dead time obtained using an unretained analyte. Log k, calculated from the capacity factor k, is used as the lipophilicity index converted to log P scale.

The test system of data set [2] is methicillin-resistant S. aureus SA 630. Put plainly: In vitro antibacterial susceptibility testing, broth dilution micro-method. The data set is classed as cell-based, Staphylococcus aureus. Particulars: clinical isolate MRSA SA 630, MH broth, 24 h, 37 °C; for MIC: Staphylococcus aureus. Here is the method:
(§1) The synthesized compounds were evaluated for in vitro antibacterial activity against representatives of multidrug-resistant bacteria, clinical isolates of methicillin-resistant Staphylococcus aureus (MRSA) 63718, SA 630 and SA 3202 that were obtained from the National Institute of Public Health, Prague, Czech Republic. Staphylococcus aureus ATCC 29213 was used as a reference and quality control strain. Ampicillin (Sigma-Aldrich) was used as the standard. Prior to testing, each strain was passaged onto nutrient agar (Oxoid, Hampshire, UK) with 5% of bovine blood, and bacterial inocula were prepared by suspending a small portion of bacterial colony in sterile phosphate buffered saline (pH 7.2–7.3). The cell density was adjusted to 0.5 McFarland units using a densitometer (Densi-La-Meter, LIAP, Riga, Latvia). The final inoculum was made by 1:20 dilution of the suspension with the Mueller-Hinton broth (MH broth). […] The broth dilution micro-method modified according to NCCLS guidelines in MH broth was used to determine the minimum inhibitory concentration (MIC). Drug-free controls, sterility controls and controls consisted of MH broth and DMSO alone were included. The determination of results was performed visually after 24 h of static incubation in the darkness at 37 °C in an aerobic atmosphere. The MICs were defined as the lowest concentration of the compound at which no visible bacterial growth was observed.
A general note: Broth dilution looks for growth in wells or tubes with falling amounts of substance.

The test system of data set [3] is methicillin-resistant S. aureus SA 3202. Described as above. The data set is classed as cell-based, Staphylococcus aureus. As to conditions: clinical isolate MRSA SA 3202, MH broth, 24 h, 37 °C; for MIC: Staphylococcus aureus. Here is the method: as §1
For a further data set, the system named is M. kansasii DSM 44162. Put plainly: In vitro antimycobacterial evaluation, broth dilution micro-method. It is filed as cell-based. As to conditions: Mycobacterium kansasii, DSM44162, 168 h, Middlebrook 7H9, 7 days, 37 °C.
In data set [4] the test system is methicillin-resistant Staphylococcus aureus (MRSA) 63718. Put plainly: In vitro antibacterial susceptibility testing, broth dilution micro-method. The data set is classed as cell-based. As to conditions: clinical isolate MRSA 63718, MH broth, 24 h, 37 °C; for MIC: Staphylococcus aureus. Here is the method: as §1
Data set [5] has as its system Staphylococcus aureus ATCC 29213. The data set is described as above. The data set is classed as cell-based. Particulars: 24 h, 37 °C; for MIC: ATCC29213, MH broth. Here is the method: as §1
In data set [6] the test system is Mycobacterium marinum CAMP 5644. As to the kind of experiment: In vitro antimycobacterial evaluation, broth dilution micro-method. It is filed as cell-based. Particulars: CAMP5644, 504 h, Middlebrook 7H9, 21 days, 28 °C.
Data set [7] has as its system photosynthetic electron transport (PET) in spinach chloroplasts. As to the kind of experiment: Inhibition of photosynthetic electron transport (PET) in spinach chloroplasts (DCPIP photoreduction). It is filed as biochemical, Spinacia oleracea L. Here is the method:
Chloroplasts were prepared from spinach (Spinacia oleracea L.) according to Masarovicova and Kralova. The inhibition of photosynthetic electron transport (PET) in spinach chloroplasts was determined spectrophotometrically (Genesys 6, Thermo Scientific), using an artificial electron acceptor 2,6-dichlorophenol-indophenol (DCIPP) according to Kralova et al., and the rate of photosynthetic electron transport was monitored as a photoreduction of DCPIP. The measurements were carried out in phosphate buffer (0.02 mol/L, pH 7.2) containing sucrose (0.4 mol/L), MgCl2 (0.005 mol/L) and NaCl (0.015 mol/L). The chlorophyll content was 30 mg/L in these experiments and the samples were irradiated (~100 W/m^2 with 10 cm distance) with a halogen lamp (250 W) using a 4 cm water filter to prevent warming of the samples (suspension temperature 22 °C). The studied compounds were dissolved in DMSO due to their limited water solubility. […] The inhibitory efficiency of the studied compounds was expressed by IC50 values, i.e., by molar concentration of the compounds causing 50% decrease in the oxygen evolution rate relative to the untreated control.

Data set [8] has as its system human monocytic leukemia THP-1 cells. As to conditions: assessed in this line formerly; cited from earlier work.
Data set [9] shares this test system. It is filed as cell-based. As to conditions: 24 h. Here is the method: Human monocytic leukemia THP-1 cells were used for in vitro toxicity assay. Cells were obtained from the European Collection of Cell Cultures (ECACC, Salisbury, UK) and routinely cultured in RPMI medium supplemented with 10% fetal bovine serum, 2% L-glutamine, 1% penicillin and streptomycin at 37 °C with 5% CO2. Cytotoxicity was determined using a WST-1 assay kit (Roche Diagnostics, Mannheim, Germany) according to the manufacturer’s instructions. The tested compounds were dissolved in DMSO and added in five increasing concentrations (0.37, 1.1, 3.3, 10, and 30 μmol/L) to the cell suspension in the culture medium. Subsequently, the cells were incubated for 24 h at 37 °C with 5% CO2. WST-1 assays conducted in triplicates were performed as previously described. The median lethal dose values, LD50, were deduced through the production of a dose-response curve. All data were evaluated using GraphPad Prism 5.00 software (GraphPad Software, San Diego, CA, USA).

Setting [10] is: phosphate buffer pH 7.2, DCPIP acceptor.
[11] abbreviates: as quoted in the chlorophyll a fluorescence discussion.

Values after ≈ are worked out from the molar mass of the structure shown. Values joined by “and” are separate entries in the source; they are usually repeats but may differ in a detail not shown here. Identical values can stand only once. Like-named read-outs stand apart in the source and are kept apart here.

In general, MIC refers to the lowest concentration found to suppress growth. The term IC50 denotes the concentration at which inhibition is half-maximal. A low value points to inhibition by little substance. For the compound `O=C(Nc1ccccc1Br)c1cc2ccccc2cc1O` [6a, N-(2-Bromophenyl)-3-hydroxynaphthalene-2-carboxamide], in [1], the log k amounted to 0.9715. Further, the MIC is greater than 748 µM in [2]; greater than 748 µM in data set [3]; 748 µM (≈ 256 µg/mL) against M. kansasii DSM 44162; greater than 748 µM in [4]; greater than 748 µM in data set [5]; greater than 748 µM in data set [6]. In data set [7] (setting [10]), this compound had an IC50 of 43.2 µM.

With `CN(C)C(=O)Nc1ccc(Cl)c(Cl)c1` [DCMU, 3-(3,4-dichlorophenyl)-1,1-dimethylurea, reference compound], the IC50 in data set [7] (setting [10]) is ~1.9 µM and 1.9 µM.

Take `CC[C@@]1(O)C(=O)OCc2c1cc1n(c2=O)Cc2cc3ccccc3nc2-1` [camptothecin]: in [8], the LD50 is 0.20 ± 0.07 µmol/L.

Consider `COc1ccccc1NC(=O)c1cc2ccccc2cc1O` [compound 2a, 3-Hydroxy-N-(2-methoxyphenyl)naphthalene-2-carboxamide], for which, in [1], the log k is on record as 0.6916. The MIC in data set [2] turned out to be 55 µM (≈ 16.1 µg/mL); in data set [3] it was 55 µM (≈ 16.1 µg/mL); against M. kansasii DSM 44162 it was 218 µM (≈ 63.9 µg/mL); in data set [4], 55 µM (≈ 16.1 µg/mL); in data set [5], 55 µM (≈ 16.1 µg/mL); in [6], 873 µM (≈ 256 µg/mL). In addition, in data set [2], the “MIC MRSA 630” value amounted to 55 µM (≈ 16.1 µg/mL). Besides, the “MIC MRSA 3202” value in data set [3] was determined as 55 µM (≈ 16.1 µg/mL). Besides, the “MIC MRSA 63718” value in data set [4] came to 55 µM (≈ 16.1 µg/mL). Moreover, the “MIC SA” value in [5] (MH broth) worked out at 55 µM (≈ 16.1 µg/mL). This compound came in with an IC50 in data set [7] (setting [10]) of 59.5 µM.

For `COc1cccc(NC(=O)c2cc3ccccc3cc2O)c1` [compound 2b, 3-Hydroxy-N-(3-methoxyphenyl)naphthalene-2-carboxamide], in data set [1], the log k turned out to be 0.6971. In addition, the MIC is greater than 873 µM in data set [2]; greater than 873 µM in data set [3]; 54.6 µM (≈ 16 µg/mL) against M. kansasii DSM 44162; greater than 873 µM in data set [4]; greater than 873 µM in data set [5]; greater than 873 µM in [6]. The IC50 in [7] (setting [11]) and in data set [7] (setting [10]) was 53.4 µM each time.

With `O=C(Nc1ccccc1C(F)(F)F)c1cc2ccccc2cc1O` [compound 7a, 3-Hydroxy-N-(2-trifluoromethylphenyl)naphthalene-2-carboxamide], the LD50 in data set [9] was 28.6 ± 0.5 µmol/L. Further, the log k in data set [1] worked out at 0.8762. Also, the MIC in data set [2] is greater than 773 µM; in data set [3] it was 97 µM (≈ 32.1 µg/mL); against M. kansasii DSM 44162, 193 µM (≈ 63.9 µg/mL); in data set [4], greater than 773 µM; in [5] it was greater than 773 µM; in [6] it was 193 µM (≈ 63.9 µg/mL). Moreover, the IC50 in data set [7] (setting [11]) and in data set [7] (setting [10]) was 105 µM throughout.

Regarding `O=C(Nc1ccccc1[N+](=O)[O-])c1cc2ccccc2cc1O` [compound 8a, 3-Hydroxy-N-(2-nitrophenyl)naphthalene-2-carboxamide], the log k in data set [1] amounted to 0.8710. Besides, the MIC in data set [2] is 415 µM (≈ 128 µg/mL); in [3], 415 µM (≈ 128 µg/mL); in the data set with M. kansasii DSM 44162 it was 830 µM (≈ 256 µg/mL); in [4] it was greater than 830 µM; in data set [5], greater than 830 µM; in data set [6], 830 µM (≈ 256 µg/mL). The IC50 in [7] (setting [10]) came to 107 µM.

In [9], `O=C(Nc1cccc([N+](=O)[O-])c1)c1cc2ccccc2cc1O` [compound 8b, 3-Hydroxy-N-(3-nitrophenyl)naphthalene-2-carboxamide] had an LD50 of 2.5 ± 0.9 µmol/L. Moreover, the log k in data set [1] is 0.8143. Besides, the MIC in data set [2] was greater than 830 µM; in data set [3], greater than 830 µM; against M. kansasii DSM 44162 it was 415 µM (≈ 128 µg/mL); in data set [4], greater than 830 µM; in data set [5], greater than 830 µM; in [6], greater than 830 µM. The compound further had an IC50 in data set [7] (setting [10]) of 16.9 µM.

`O=C(Nc1ccc([N+](=O)[O-])cc1)c1cc2ccccc2cc1O` [compound 8c, 3-Hydroxy-N-(4-nitrophenyl)naphthalene-2-carboxamide] showed a log k in data set [1] of 0.9175. For the same compound, the minimum inhibitory concentration (MIC) is greater than 830 µM in data set [2]; greater than 830 µM in [3]; 13 µM (≈ 4.01 µg/mL) in the data set with M. kansasii DSM 44162; greater than 830 µM in data set [4]; greater than 830 µM in [5]; greater than 830 µM in data set [6]. Besides, in [7] (setting [10]), the IC50 is 188 µM.

(Values after publication PMC6270455, “Antibacterial and Herbicidal Activity of Ring-Substituted 3-Hydroxynaphthalene-2-carboxanilides” (Molecules, 2013).)
